Blank lines part the entries; values can stand above or below the compound they belong to.
Key:
[1] = set-up: method as in PMID 28288939, PMID 30253203, PMID 31175939, PMID 33459177, PMID 35400324; conditions: reported; cited from earlier work
[2] = system: L858R/T790M EGFR mutant kinase; set-up: method as in PMID 27251290; conditions: cited from earlier work
[3] = after oral administration; no reference given; cited from earlier work
human OATP1A2 = system: human OATP1A2; set-up: method as in PMID 31770475; conditions: cited from earlier work
[4] = mouse, in vivo
Experimental: We subsequently analyzed the single and combined effects of Abcb1 and Abcg2 deficiencies on EAI045 plasma pharmacokinetics and tissue accumulation using male WT, Abcg2^-/-, Abcb1a/1b^-/-, and Abcb1a/1b;Abcg2^-/- mice. As we wanted to assess tissue concentrations while plasma concentrations were still relatively high; we terminated this experiment at 30 min.
(§1) Mice (Mus musculus) were bred in the Netherlands Cancer Institute and housed and handled according to institutional guidelines complying with Dutch and EU legislation. Animals used were WT, Abcb1a/1b^-/- [39], Abcg2^-/- [40], Abcb1a/1b;Abcg2^-/- [41], Cyp3a^-/- [42], and Oatp1a/1b^-/- [43] mice of a >99% FVB/N strain background. Homozygous CYP3A4 humanized transgenic mice (Cyp3aXAV) were generated by cross-breeding of transgenic mice with stable human CYP3A4 expression in the liver or intestine, respectively, in a Cyp3a^-/- background. Proper functionality of the knockout and transgenic strains was monitored by regular testing with a variety of drug substrates. All the mice used were between 10 and 15 weeks of age. Animals were kept in a temperature-controlled environment with a 12 h light/12 h dark cycle and received a standard diet (Transbreed, SDS Diets, Technilab-BMI, The Netherlands) and acidified water ad libitum. Depending on the type of experiment, 5 or 6 mice were tested in each experimental group. All experimental animal protocols, including power calculations, were ethically assessed and designed under the nationally approved DEC/CCD project AVD301002016595 (approval date, 10 August 2016) and evaluated and approved by the institutional animal care and use committee (IACUC) of the Netherlands Cancer Institute.
(§2) EAI045 was dissolved in dimethyl sulfoxide (DMSO) at a concentration of […], and then diluted with a mixture of polysorbate 80/ethanol (1:1, v/v), and further diluted with 5% (w/v) glucose in water to yield a concentration of 2 mg/mL. Final concentrations for DMSO, polysorbate 80, ethanol, and glucose in the dosing solution were 5%, 2.5%, 2.5%, and 4.5% (v/v/v/w), respectively. Elacridar hydrochloride was dissolved in DMSO at a concentration of 53 mg/mL, then diluted with a mixture of polysorbate 80, ethanol, and water [20:13:67, (v/v/v)] to yield a concentration of 5 mg/mL elacridar. The final oral dose of elacridar was 50 mg/kg body weight. All dosing solutions were prepared freshly on the day of experiment.
(§3) To minimize variation in absorption, mice were fasted for about 3 h before EAI045 was administered by gavage into the stomach (n = 5–6), using a blunt-ended needle. EAI045 was administered orally at dose of 20 mg/kg. Elacridar was administered orally at a dose of 50 mg/kg, 3 h prior to oral EAI045 administration. For the 24- or 4-h experiments, tail vein blood samplings were performed at 5 min, 30 min, 1, 2, 4, and 8 h, or 5 min, 15 min, 30 min, 1, and 2 h time points after oral administration of EAI045, respectively, using microvettes containing heparin. For the 30 min experiments, blood samplings were performed at 5, 10, and 20 min from the tail vein. At the last time point (24 h, 4 h, or 30 min), mice were anesthetized with isoflurane and blood was collected by cardiac puncture. Then, mice were sacrificed by cervical dislocation and brain, liver, spleen, kidneys, lung, small intestine with content (SIWC), and testis were rapidly removed and weighed. Tissues were homogenized on ice in appropriate volumes of 2% (w/v) BSA. Blood samples were centrifuged at 9000× g for 6 min at 4 °C immediately after collection. All samples were stored at −30 °C until analysis.

[5] = mouse, in vivo; remark: listed apart in the source
Text: as §1, §2, §3

Compound: CN(C)C/C=C/C(=O)Nc1cc2c(Nc3ccc(F)c(Cl)c3)ncnc2cc1O[C@H]1CCOC1 [afatinib]
increase in brain penetration in Abcb1a/1b;Abcg2-/- compared to WT mice [1]: 28 fold

Compound: C=CC(=O)Nc1cc(Nc2nccc(-c3cn(C)c4ccccc34)n2)c(OC)cc1N(C)CCN(C)C [osimertinib]
increase in brain penetration in Abcb1a/1b;Abcg2-/- compared to WT mice [1]: 6.4 fold

Compound: EAI001 [reference compound]
potency against individual L858R and T790M mutants [2]: modest potency

Compound: COc1cc2c(cc1OC)CN(CCc1ccc(NC(=O)c3cccc4c(=O)c5cccc(OC)c5[nH]c34)cc1)CC2 [elacridar]
time of peak plasma concentration [3]: 3 to 4 h
inhibition of human OATP1A2 (human OATP1A2): reported to inhibit

Compound: COc1cc(N2CCC(N3CCN(C)CC3)CC2)ccc1Nc1ncc(Cl)c(Nc2ccccc2P(C)(C)=O)n1 [brigatinib]
increase in brain penetration in Abcb1a/1b;Abcg2-/- compared to WT mice [1]: 38 fold

PIA SIWC%, fold decrease [4]: 1.8 fold
PIA SIWC%-to-plasma ratio, fold decrease [4]: 2.7 fold
amount of PIA retrieved from SIWC, % of the EAI045 dose [4]: ~ 0.3%
PIA oral AUC0–30min among the strains ([4]; po): no meaningful differences
PIA/EAI045 AUC0–30min ratio ([4]; po, 20 mg/kg): 270-480%
PIA/EAI045 AUC ratio ([4]; po, 20 mg/kg): about 400%
PIA brain-to-plasma ratio ([4]; po, 20 mg/kg, 0.5 h): 0.014
PIA brain-to-plasma ratio, fold increase [5]: 3.3 fold
PIA kidney-to-plasma ratio, fold increase [5]: 4.2 fold
PIA liver-to-plasma ratio, fold decrease [5]: 1.5 fold
Compound: O=C(O)C(c1cc(F)ccc1O)N1Cc2ccccc2C1=O (stereo not shown) [PIA]

Reference: article PMC9505538, “P-Glycoprotein (MDR1/ABCB1) Restricts Brain Accumulation of the Novel EGFR Inhibitor EAI045 and Oral Elacridar Coadministration Enhances Its Brain Accumulation and Oral Exposure” (Pharmaceuticals, 2022)
